In US20250161273A1, “PHARMACEUTICAL COMPOSITION COMPRISING DIPHENYLDIAZOLE DERIVATIVES AND METHODS OF USE” (MODAG GMBH, priority 2022, published 2025):
Read-outs that look alike come from different tables or passages of the source.

Columns and labels:
[1] = rat formulation study, PK after single oral administration; type: in vivo; conditions: Sprague-Dawley, plasma, male rats, 10 mg/kg single oral, read-out: Tmax, all four formulations
Experimental: A rat study was undertaken to assess the pharmacokinetics of anle138b in male Sprague Dawley rats (n=3/arm) following single oral administration of different formulations of anle138b, as follows, in Table 5.
Male Sprague Dawley (SD) rats (n=3/formulation) sourced from Charles River Italia were kept for 5 days acclimatization. Feeding regimen was ad libitum except on the day of dosing when the food was supplied 4 hours post dosing, having been removed the evening beforehand. Animals were orally dosed with anle138b (10 mg/kg) formulated as above. An individual serial plasma profile was drawn from each animal over a period of 24 hours after dosing.
The dose formulations were administered orally via gastric gavage (2 ml/kg); any remaining formulation after dosing was discarded.
After oral administration, blood samples were collected from the tail vein of each rat at the time-points detailed: Pre dose, 0.5, 1, 2, 4, 6, 8 and 24 hours after dosing […]
PK profiling was performed by non-compartmental analysis using Phoenix™ WinNonlin. […] The maximum observed peak plasma concentration (Cmax) and the time at which it was observed (Tmax) were determined by inspection of the observed data.
The relative bioavailability ([…]) of anle138b between dose formulations was calculated by comparing systemic exposure (AUC0-t), and are reported rounded to at least 2 significant figures. […]

[2] = animal studies, cited from earlier work
[3] = phase 1 first-in-human trial, multiple ascending dose (MAD) PK; type: in vivo; conditions: for reduction of AUC compared to Day 1 / reduction of Cmax compared to Day 1: Day 7, fasted; for fold increase in AUC / fold increase in Cmax: MAD Day 1; for AUC: read-out: AUC(0-tau) (geometric mean); for Cmax: read-out: Cmax (geometric mean)
Experimental: Anle138b was studied in a single-centre, double-blind, randomised, placebo-controlled single ascending dose (SAD) and multiple ascending dose (MAD) study in healthy subjects. Eligible participants were randomly assigned (1:1 for sentinel subjects and 1:5 for main group) to placebo or anle138b (dose ranging from 50 mg to 300 mg per day), respectively. In addition, the effect of food on the pharmacokinetics (PK) of anle138b in healthy subjects was examined at doses of 150 mg per day (FES, food effect study). Participants were randomized to treatment sequence (fed→fasted) or (fasted→fed). Treatment for the SAD, MAD and FES arms of the study was administered orally in hard gelatin capsules containing either 10 mg or 30 mg of anle138b with excipient (i.e., lauroyl polyoxyl-32 glycerides) or excipient only. The primary endpoints were safety and tolerability, the secondary endpoint was pharmacokinetics. Data from all randomized individuals were evaluated. [Clinicaltrials.gov-identifier: NCT04208152. EudraCT-number: 2019-004218-33]
Study design: A single-centre, double-blind, randomised, placebo-controlled single ascending dose (SAD) and multiple ascending dose (MAD) study of anle138b in doses of up to 300 mg per day in healthy subjects. The effect of food (FES) on the PK of anle138b in healthy subjects was examined using doses of 150 mg. Participants were recruited from Quotient Sciences (the “CRO”, Nottingham, UK) volunteer database. Approvals from the ethical review board and from the Medicines and Healthcare products Regulatory Agency (UK) were obtained. This study was conducted in accordance with the protocol and with the following legislation: The updated version of the international Council for Harmonisation Good Clinical Practice (GCP) including the integrated Addendum E6, the Medicines for Human Use (Clinical Trials) Regulations including amendments No. 1928, 2984 and 941. In addition, the study was performed according to the ethical principles outlined in the World Medical Association Declaration of Helsinki and its amendments. The study data was monitored. An independent study monitor was appointed to verify that the study was conducted in accordance with current GCP, regulatory requirements, the protocol and that the data were authentic, accurate and complete.
In SAD, subjects received a single dose of anle138b or placebo after fasting from all food and drink (except water) for a minimum of 8 h prior to dosing. The dosing in the four SAD-cohorts were 50 mg, 100 mg, 200 mg and 300 mg of free anle138b equivalent, QD, cohorts A, B, C and D respectively. In the MAD part, participants received anle138b or placebo once daily (QD) for 7 days after fasting from all food and drink (except water) for a minimum of 8 h prior to dosing. The dosing in the three MAD-cohorts was 100 mg, 200 mg and 300 mg of free anle138b equivalent, cohorts AM, BM and CM, respectively. Post dosing mouth and hand checks were conducted to ensure the capsules were swallowed. In-study decisions were made by the safety advisory committee (SAC) comprising the principal investigator, the sponsor's medical monitor and a PK expert. For dose escalation to proceed, data needed to be available from a minimum of 6 subjects per cohort with completed per protocol safety and PK assessments up to 48 h after dosing to ensure at least 4 subjects had received active IMP. The decision to proceed to the next higher dose level was based on safety, tolerability and available PK data to 48 h post-administration. The following data were analyzed: Adverse events, vital signs, safety laboratory, ECG, physical examinations, plasma concentrations of anle138b with interim PK parameter estimations (Tmax, Cmax, AUC0-24, AUC0-tau, AUC0-last and T½, where applicable). Data were provided to the SAC in accordance with CRO standard operating procedure (SOP) on interim dose decision-making and dose escalation. […]

[4] = 1.5-fold increase in dose from 200 mg to 300 mg
[5] = 2-fold increase in dose from 100 mg to 200 mg
[6] = human, plasma, oral, 100 mg, healthy volunteers, fasted, 100 mg QD, Day 1
[7] = human, plasma, oral, 100 mg, healthy volunteers, fasted, 100 mg QD, Day 7
[8] = human, plasma, oral, 200 mg, healthy volunteers, fasted, 200 mg QD, Day 1
[9] = human, plasma, oral, 200 mg, healthy volunteers, fasted, 200 mg QD, Day 7
[10] = human, plasma, oral, 300 mg, healthy volunteers, fasted, 300 mg QD, Day 1
[11] = human, plasma, oral, 300 mg, healthy volunteers, fasted, 300 mg QD, Day 7

Compound: Brc1cccc(-c2cc(-c3ccc4c(c3)OCO4)n[nH]2)c1 [anle138b, 3-(1,3-benzodioxol-5-yl)-5-(3-bromophenyl)-1H-pyrazole]
- Tmax [1]: 2 to 8 h
- oral bioavailability (in words) [2]: high oral bioavailability
- levels in the brain relative to plasma ([2]; oral): 5 fold
- reduction of AUC compared to Day 1 ([3]; MAD 100 mg group): about 53%
- reduction of Cmax compared to Day 1 ([3]; MAD 100 mg group): about 53%
- reduction of AUC compared to Day 1 ([3]; MAD 200 mg group): about 70%
- reduction of Cmax compared to Day 1 ([3]; MAD 200 mg group): about 70%
- reduction of AUC compared to Day 1 ([3]; MAD 300 mg group): 71%
- reduction of Cmax compared to Day 1 ([3]; MAD 300 mg group): 66%
- fold increase in AUC [3, 4]: 2.4 fold
- fold increase in Cmax [3, 4]: 2.0 fold
- fold increase in AUC [3, 5]: 3.5 fold
- fold increase in Cmax [3, 5]: 3.3 fold
- accumulation ratios per cohort ([3]; MAD, Day 7 vs Day 1): below 0.54
- day by which steady state exposure appeared to be reached ([3]; MAD, based on trough levels): ≤ 5 days
- Tmax ([3]; human, plasma, oral, 100 mg, healthy volunteers, fasted, 100 mg QD (Cohort AM), Day 1, read-out: Tmax (median)): 1 h
- Tmax ([3]; human, plasma, oral, 100 mg, healthy volunteers, fasted, 100 mg QD (Cohort AM), Day 1, read-out: Tmax (range)): 1 to 1.5 h
- Tmax ([3]; human, plasma, oral, 100 mg, healthy volunteers, fasted, 100 mg QD (Cohort AM), Day 7, read-out: Tmax (median)): 1.25 h
- Tmax ([3]; human, plasma, oral, 100 mg, healthy volunteers, fasted, 100 mg QD (Cohort AM), Day 7, read-out: Tmax (range)): 1 to 1.5 h
- AUC [3, 6]: ~261 ng·h/mL
- Cmax [3, 6]: ~135 ng/mL
- AUC [3, 7]: ~141 ng·h/mL
- Cmax [3, 7]: ~70.9 ng/mL
- half-life ([3]; human, plasma, oral, 100 mg, healthy volunteers, fasted, 100 mg QD, Day 7, read-out: T1/2 (geometric mean) (converted)): ~4.23 h
- Tmax ([3]; human, plasma, oral, 200 mg, healthy volunteers, fasted, 200 mg QD (Cohort BM), Day 1, read-out: Tmax (median)): 1.5 h
- Tmax ([3]; human, plasma, oral, 200 mg, healthy volunteers, fasted, 200 mg QD (Cohort BM), Day 1, read-out: Tmax (range)): 1 to 2.02 h
- Tmax ([3]; human, plasma, oral, 200 mg, healthy volunteers, fasted, 200 mg QD (Cohort BM), Day 7, read-out: Tmax (median)): 1 h
- Tmax ([3]; human, plasma, oral, 200 mg, healthy volunteers, fasted, 200 mg QD (Cohort BM), Day 7, read-out: Tmax (range)): 1 to 1.5 h
- AUC [3, 8]: ~905 ng·h/mL
- Cmax [3, 8]: ~447 ng/mL
- AUC [3, 9]: ~308 ng·h/mL
- Cmax [3, 9]: ~128 ng/mL
- half-life at 7 days ([3]; human, plasma, oral, 200 mg, healthy volunteers, fasted, 200 mg QD, Day 7, read-out: T1/2 (geometric mean) (converted)): ~10 h
- Tmax ([3]; human, plasma, oral, 300 mg, healthy volunteers, fasted, 300 mg QD (Cohort CM), Day 1, read-out: Tmax (median)): 1.5 h
- Tmax ([3]; human, plasma, oral, 300 mg, healthy volunteers, fasted, 300 mg QD (Cohort CM), Day 1, read-out: Tmax (range)): 1.5 to 2 h
- Tmax ([3]; human, plasma, oral, 300 mg, healthy volunteers, fasted, 300 mg QD (Cohort CM), Day 7, read-out: Tmax (median)): 1.5 h
- Tmax ([3]; human, plasma, oral, 300 mg, healthy volunteers, fasted, 300 mg QD (Cohort CM), Day 7, read-out: Tmax (range)): 1 to 1.5 h
- AUC [3, 10]: ~2210 ng·h/mL
- Cmax [3, 10]: ~910 ng/mL
- AUC [3, 11]: ~633 ng·h/mL
- Cmax [3, 11]: ~307 ng/mL
- half-life ([3]; human, plasma, oral, 300 mg, healthy volunteers, fasted, 300 mg QD, Day 7, read-out: T1/2 (geometric mean) (converted)): ~6.07 h
- Tmax ([3]; human, plasma, oral, healthy volunteers, 100-300 mg QD, post-administration, read-out: median Tmax, all MAD cohorts): 1 to 1.5 h
